Measured values as given in patent publication US20030113330A1, “Methods for treating pulmonary fibrosis” (priority 1999, published 2003).
“Also recorded” adds a separate entry of the source.

Tests used:
Caspase 3/CPP32/YAMA = molecular target: T1, Caspase 3/CPP32/YAMA (Homo sapiens, UniProt P42574); test: Caspase 3/CPP32/YAMA activity in intact A549 cells (Ac-DEVD-AMC); format: cell-based; conditions: 50 ng/ml captopril
T1 construct: endogenous in cells; host or cells: A549 human lung epithelial cell line
T1 sequence (P42574 29-277): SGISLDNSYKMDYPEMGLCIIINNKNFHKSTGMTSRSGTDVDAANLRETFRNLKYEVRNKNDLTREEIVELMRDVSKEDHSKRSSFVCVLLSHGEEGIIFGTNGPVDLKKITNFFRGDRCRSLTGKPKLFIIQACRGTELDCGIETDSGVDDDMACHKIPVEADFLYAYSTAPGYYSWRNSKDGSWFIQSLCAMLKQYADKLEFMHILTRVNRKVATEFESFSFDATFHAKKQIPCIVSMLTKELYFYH
Method: (§1) Caspase Assays. The enzymatic activities of Caspase 1/interleukin-1b-converting enzyme (ICE) and Caspase 3/CPP32/YAMA were determined in intact A549 cell cultures pre-incubated under conditions identical to those used for morphologic assays of apoptosis. After a 20 h incubation with antibodies and/or captopril, cells were trypsinized from the culture vessels and resuspended in serum-free culture medium containing anti-FAS antibodies and/or captopril at the same concentrations as during the preincubation. After one hour, fluorogenic peptide substrates specific to each enzyme were added separately to cuvettes containing cell suspension for measurement of total activity in intact cells. […] Production of fluorescent product over time was monitored in a spectrofluorometer at 380 nm excitation and 450 nm emission. […]
(§2) The same concentration of captopril also abrogated FAS-induced stimulation of Caspase 1 (ICE) (p<0.01 compared to control) and Caspase 3/CPP32/YAMA (p<0.01 compared to FASmAb treatment alone) activities. […] Cells were then analyzed in suspension culture for the activity of Caspase 1/ICE with peptide substrate Ac-YVAD-AMC or for activity of Caspase 3/CPP32/YAMA with peptide substrate Ac-DEVD-AMC as described above. […]

Caspase 1/ICE = molecular target: T2, Caspase 1/ICE (Homo sapiens, UniProt P29466); test: Caspase 1/ICE activity in intact A549 cells (Ac-YVAD-AMC); format: cell-based; conditions: 50 ng/ml captopril
T2 construct: endogenous in cells; host or cells: A549 human lung epithelial cell line
T2 sequence (P29466 120-404): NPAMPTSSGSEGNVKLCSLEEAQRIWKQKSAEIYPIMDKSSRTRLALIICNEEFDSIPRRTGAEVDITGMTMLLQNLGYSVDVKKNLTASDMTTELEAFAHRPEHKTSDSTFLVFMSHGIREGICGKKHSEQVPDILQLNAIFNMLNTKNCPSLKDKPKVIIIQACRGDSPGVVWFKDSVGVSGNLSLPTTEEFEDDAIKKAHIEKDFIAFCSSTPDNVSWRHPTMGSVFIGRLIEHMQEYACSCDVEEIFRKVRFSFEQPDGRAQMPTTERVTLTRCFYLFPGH
Method: as §1, §2

[1] = system: angiotensinogen (ANGEN) mRNA; test: Quantitative RT-PCR of angiotensinogen mRNA in Fas-activated A549 cells; format: cell-based, human; conditions: A549, CH-11
Method: (§3) RT-PCR. Reverse transcriptase polymerase chain reaction (RT-PCR) assay of angiotensinogen gene products was performed as described in Wang et al., Am. J. Physiol. 276:L885-L889 (1999) in a total reaction volume of 30 μl. Total RNA was isolated by the RNeasy Mini protocol (Qiagen Co., Santa Clarita, Calif.). The reaction was performed for 1 hour at 45 C. followed by 20 cycles of PCR amplification. PCR amplification was performed with 10 ul aliquots of cDNA, equivalent to 1 ug of the starting RNA. The identity of expressed genes was determined by expected size of the PCR product in 1.6% agarose gels.
For RT-PCR from the human A549 cells, the following primers were used: for angiotensinogen, “outer” primer of a two-step nested assay, coding=5′ GCTTTC-[…] 3′ [SEQ. ID NO. ______], and noncoding=5′ […] 3′ [SEQ. ID. NO. ______]; for the “inner” primer of the nested assay, coding=5′ […] 3′ [SEQ. ID NO. ______], and noncoding=5′ […] 3′ [SEQ. ID NO. ______]. These primers yield a final PCR product of 447 bp (8). […]
(§4) To confirm this, total RNA was isolated from human A549 cells or primary rat AEC that were unactivated (CTL) or activated with Fas-ligating CH-11 antibody or purified Fas ligand in the presence or absence of saralasin (SAR). Quantitative RT-PCR was performed with primers specific for human or rat angiotensinogen (ANGEN), β-actin or β-microglobulin (b-MG). […]

[2] = system: angiotensinogen (ANGEN) mRNA; test: Quantitative RT-PCR of angiotensinogen mRNA in Fas-activated primary rat AEC; format: cell-based; conditions: Fas ligand
Method: as §3
For RT-PCR of rat-specific gene products, the following primers were used: for angiotensinogen, coding=5′ […] 3′, and noncoding=5′ […] 3′, which yields a PCR product of 226 bp by single-step RT-PCR (Pierzchalski et al., Exp. Cell Res. 234:57-65 (1997)). For β-microglobulin, the primers used were: coding=5′ […] 3′, and noncoding=5′ […] 3′, which yields a product of 249 bp (Katwa et al., Cardiovasc. Res. 29:57-64 (1995)).
as §4

[3] = system: primary rat alveolar epithelial cells; test: Apoptosis of rat AEC induced by human lung fibroblast-conditioned media; format: cell-based; conditions: saralasin 50 ug/ml, DEVD-fmk 60 uM, anti-ANGII IgG 1 ug/ml
Description: Fibroblast Isolation, Culture and Preparation of Conditioned Media. Primary human lung fibroblasts were isolated at the National Institute of Respiratory Diseases, Mexico. […] Of these, “fibrotic” lung fibroblast strains (HIPF-X, where X=patient number) were derived from patients suffering from either of two different types of interstitial lung disease (ILD): Idiopathic Pulmonary Fibrosis (IPF) and Chronic Hypersensitivity Pneumonitis (CHP). In both diseases, patients had clinical, functional and radiologic features which fulfill the diagnostic criteria for an ILD. […] Briefly, all patients had progressive dyspnea, bilateral reticulonodular images on chest roentgenogram, restrictive lung functional impairment with decreased lung volumes and compliance, and hypoxemia at rest that worsened with exercise. […] Patients with IPF had neither antecedents of any occupational or environmental exposure nor other known cause of ILD. […] Biopsies lacked granulomas, vasculitis, microorganisms, and inorganic material by polarized light microscopy.
Control fibroblasts were obtained from individuals having undergone a lobectomy for removal of a primary lung tumor. […] Lung fibroblasts from normal or fibrotic tissue were isolated by trypsin dispersion, and fibroblast strains were established in Dulbecco's modified Eagle's medium (or in Ham's F-12 medium) supplemented with 10% fetal calf serum, 200 U/ml penicillin, and 200 mg/ml streptomycin. […]
Epithelial Cell Culture and Detection of Apoptosis. […] All epithelial cell preparations were greater than 90% pure as determined by acridine orange uptake into lamellar bodies. […] Epithelial cell apoptosis was detected by the assessment, under fluorescence microscopy, of chromatin condensation and nuclear fragmentation within cytokeratin-positive cells after ethanol fixation and staining with propidium iodide. […]
The percentage increase in rat AEC apoptosis was determined by propidium iodide assay of primary alveolar epithelial cells exposed to serum-free conditioned media, see Uhal et al., Am.

| Structure (SMILES) | effect on FAS-inducible Caspase 3 activity (Caspase 3/CPP32/YAMA) | effect on FAS-inducible Caspase 1 activity (Caspase 1/ICE) | effect on accumulation of ANGEN mRNA during Fas activation [1] | effect on accumulation of ANGEN mRNA during Fas activation [2] | inhibition of apoptosis induced by HIPF-conditioned media [3] |
| --- | --- | --- | --- | --- | --- |
| C[C@H](CS)C(=O)N1CCC[C@H]1C(=O)O [captopril] | significantly decreased; also recorded: abrogated | completely abrogated | – | – | – |
| CNCC(=O)N[C@@H](CCCN=C(N)N)C(=O)N[C@H](C(=O)N[C@@H](Cc1ccc(O)cc1)C(=O)N[C@H](C(=O)N[C@@H](Cc1cnc[nH]1)C(=O)N1CCC[C@H]1C(=O)N[C@@H](C)C(=O)O)C(C)C)C(C)C [saralasin] | – | – | had no effect | had no effect | completely abrogated; also recorded: eliminated |
